ChEMBL document CHEMBL3991601, “The target landscape of clinical kinase drugs” (Science, 2017)
Activity calls are given as the source filed them.

Key:
[1] = biological target: T1, Serine/threonine-protein kinase A-Raf (Homo sapiens, UniProt P10398)
T1 sequence (P10398 whole entry): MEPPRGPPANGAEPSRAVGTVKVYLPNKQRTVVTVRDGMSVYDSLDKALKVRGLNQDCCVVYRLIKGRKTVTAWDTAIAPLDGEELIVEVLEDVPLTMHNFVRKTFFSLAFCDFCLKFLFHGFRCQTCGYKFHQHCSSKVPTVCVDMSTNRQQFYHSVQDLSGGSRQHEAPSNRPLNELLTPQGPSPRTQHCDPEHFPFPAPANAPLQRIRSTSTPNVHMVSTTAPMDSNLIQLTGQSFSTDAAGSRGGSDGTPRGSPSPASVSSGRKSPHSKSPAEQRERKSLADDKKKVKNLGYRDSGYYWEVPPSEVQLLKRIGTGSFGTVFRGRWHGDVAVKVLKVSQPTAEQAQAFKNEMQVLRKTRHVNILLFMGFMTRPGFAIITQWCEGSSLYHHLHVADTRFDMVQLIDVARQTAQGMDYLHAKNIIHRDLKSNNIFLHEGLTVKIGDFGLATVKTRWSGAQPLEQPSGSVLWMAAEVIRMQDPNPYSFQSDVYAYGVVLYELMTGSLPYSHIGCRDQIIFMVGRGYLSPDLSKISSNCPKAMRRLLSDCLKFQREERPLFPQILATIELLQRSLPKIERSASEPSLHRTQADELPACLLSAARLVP

[2] = biological target: T2, Peroxisomal acyl-coenzyme A oxidase 3 (Homo sapiens, UniProt O15254)
T2 sequence (O15254 whole entry): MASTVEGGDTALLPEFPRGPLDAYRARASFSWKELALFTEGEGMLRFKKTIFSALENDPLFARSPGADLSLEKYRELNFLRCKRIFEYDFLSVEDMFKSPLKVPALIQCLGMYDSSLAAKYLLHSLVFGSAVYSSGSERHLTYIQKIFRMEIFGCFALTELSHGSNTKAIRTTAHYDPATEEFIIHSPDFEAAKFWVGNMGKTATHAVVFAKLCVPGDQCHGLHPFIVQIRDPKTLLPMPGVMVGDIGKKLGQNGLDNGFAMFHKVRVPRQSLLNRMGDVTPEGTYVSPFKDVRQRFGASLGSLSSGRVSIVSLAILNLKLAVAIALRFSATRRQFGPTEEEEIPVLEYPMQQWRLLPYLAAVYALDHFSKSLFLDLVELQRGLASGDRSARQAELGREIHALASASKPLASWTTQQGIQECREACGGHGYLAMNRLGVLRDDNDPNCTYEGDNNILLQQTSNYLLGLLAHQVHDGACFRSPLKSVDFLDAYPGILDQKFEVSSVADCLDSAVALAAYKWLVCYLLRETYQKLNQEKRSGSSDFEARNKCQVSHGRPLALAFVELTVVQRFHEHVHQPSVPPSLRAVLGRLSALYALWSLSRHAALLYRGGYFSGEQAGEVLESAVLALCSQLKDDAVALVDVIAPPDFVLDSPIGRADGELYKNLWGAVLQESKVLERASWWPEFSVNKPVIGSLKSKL

[3] = biological target: Elongation factor Tu, mitochondrial (Homo sapiens, UniProt P49411)
[4] = biological target: T3, Scaffold protein ILK (Homo sapiens, UniProt Q13418)
T3 sequence (Q13418 whole entry): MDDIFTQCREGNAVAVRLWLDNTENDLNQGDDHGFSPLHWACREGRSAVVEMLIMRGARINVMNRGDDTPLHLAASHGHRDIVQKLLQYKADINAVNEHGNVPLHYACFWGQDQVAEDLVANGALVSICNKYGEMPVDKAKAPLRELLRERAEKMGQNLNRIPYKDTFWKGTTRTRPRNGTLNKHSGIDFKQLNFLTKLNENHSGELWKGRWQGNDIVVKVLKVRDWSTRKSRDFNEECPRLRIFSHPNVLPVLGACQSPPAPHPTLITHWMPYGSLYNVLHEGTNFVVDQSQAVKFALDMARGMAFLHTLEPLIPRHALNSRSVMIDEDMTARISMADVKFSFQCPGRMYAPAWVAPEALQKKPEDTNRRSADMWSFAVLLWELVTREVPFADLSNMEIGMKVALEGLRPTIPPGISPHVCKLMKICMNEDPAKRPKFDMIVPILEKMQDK

[5] = biological target: T4, Serine/threonine-protein kinase NLK (Homo sapiens, UniProt Q9UBE8)
T4 sequence (Q9UBE8 whole entry): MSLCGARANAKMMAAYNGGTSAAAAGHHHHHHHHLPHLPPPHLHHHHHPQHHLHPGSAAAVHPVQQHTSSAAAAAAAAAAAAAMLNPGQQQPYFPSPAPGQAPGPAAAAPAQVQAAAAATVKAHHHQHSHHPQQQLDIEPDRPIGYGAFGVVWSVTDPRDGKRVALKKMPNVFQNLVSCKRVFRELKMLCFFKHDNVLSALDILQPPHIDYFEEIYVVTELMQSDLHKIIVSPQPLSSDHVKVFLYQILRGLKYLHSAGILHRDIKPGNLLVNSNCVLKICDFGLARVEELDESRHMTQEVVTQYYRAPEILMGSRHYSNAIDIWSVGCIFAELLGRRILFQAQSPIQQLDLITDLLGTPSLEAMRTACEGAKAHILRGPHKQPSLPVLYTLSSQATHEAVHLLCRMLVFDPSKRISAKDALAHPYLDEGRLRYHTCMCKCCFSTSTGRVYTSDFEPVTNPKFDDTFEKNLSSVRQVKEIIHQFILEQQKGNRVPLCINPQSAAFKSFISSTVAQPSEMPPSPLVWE

[6] = biological target: Protein-tyrosine kinase 2-beta (Homo sapiens, UniProt Q14289)
Chain of Protein-tyrosine kinase 2-beta (Q14289 whole entry): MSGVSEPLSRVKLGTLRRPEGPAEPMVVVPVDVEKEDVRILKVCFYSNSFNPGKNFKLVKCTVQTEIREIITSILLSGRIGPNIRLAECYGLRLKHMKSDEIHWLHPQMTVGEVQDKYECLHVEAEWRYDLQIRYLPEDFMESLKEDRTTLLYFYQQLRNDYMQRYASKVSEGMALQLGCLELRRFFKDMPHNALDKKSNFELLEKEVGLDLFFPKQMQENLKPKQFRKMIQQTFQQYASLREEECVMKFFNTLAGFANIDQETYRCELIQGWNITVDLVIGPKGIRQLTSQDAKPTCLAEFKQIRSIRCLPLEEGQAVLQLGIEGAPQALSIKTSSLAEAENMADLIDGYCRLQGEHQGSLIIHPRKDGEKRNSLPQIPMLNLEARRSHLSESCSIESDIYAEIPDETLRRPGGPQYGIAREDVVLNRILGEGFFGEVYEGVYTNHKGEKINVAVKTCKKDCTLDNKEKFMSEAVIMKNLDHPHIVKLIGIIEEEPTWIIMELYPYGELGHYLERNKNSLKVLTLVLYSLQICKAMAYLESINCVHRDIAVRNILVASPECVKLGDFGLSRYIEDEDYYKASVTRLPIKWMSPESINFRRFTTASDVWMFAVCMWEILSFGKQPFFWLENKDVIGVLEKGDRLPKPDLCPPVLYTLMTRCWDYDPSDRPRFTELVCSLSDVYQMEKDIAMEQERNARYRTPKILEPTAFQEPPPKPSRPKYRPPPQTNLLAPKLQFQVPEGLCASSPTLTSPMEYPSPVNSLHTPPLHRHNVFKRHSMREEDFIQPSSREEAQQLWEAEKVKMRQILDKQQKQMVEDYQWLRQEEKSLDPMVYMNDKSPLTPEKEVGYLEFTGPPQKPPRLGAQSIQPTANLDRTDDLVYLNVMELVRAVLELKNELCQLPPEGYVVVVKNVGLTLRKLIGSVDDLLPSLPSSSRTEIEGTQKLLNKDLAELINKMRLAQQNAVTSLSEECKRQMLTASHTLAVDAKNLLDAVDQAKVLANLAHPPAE
Further: in the data inactive means no Kd found up to 30 µM.

In the case of `Cc1cc2c(F)c(Oc3ncnn4cc(OC[C@@H](C)OC(=O)[C@H](C)N)c(C)c34)ccc2[nH]1` [BRIVANIB ALANINATE], the Kd [1] is reported as > 30 µM (inactive), the Kd [2] is reported as > 30 µM (inactive) and the Kd [3] is reported as > 30 µM (inactive). For the same molecule, the Kd [4] was > 30 µM (inactive), the Kd [5] was > 30 µM (inactive) and the Kd [6] was > 30 µM (inactive).
In the case of `Cc1cc([C@@H](C)Nc2ccccc2C(=O)O)c2nc(N3CCOCC3)cc(=O)n2c1` [AZD-6482], the Kd [1] is reported as > 30 µM (inactive), the Kd [2] is reported as > 30 µM (inactive) and the Kd [3] is reported as > 30 µM (inactive). The Kd [4] was > 30 µM (inactive), the Kd [5] was > 30 µM (inactive) and the Kd [6] was > 30 µM (inactive).
For `COC(=O)[C@@]1(O)C[C@H]2O[C@]1(C)n1c3ccccc3c3c4c(c5c6ccccc6n2c5c31)C(=O)NC4` [K-252A], the Kd [1] was > 30 µM (inactive), the Kd [2] was > 30 µM (inactive) and the Kd [3] was > 30 µM (inactive). The Kd [4] was > 30 µM (inactive), the Kd [5] was > 30 µM (inactive) and the Kd [6] was 1.36 µM (active).
`CCS(=O)(=O)N1CC(CC#N)(n2cc(-c3ncnc4[nH]ccc34)cn2)C1` [BARICITINIB] was tested, and the Kd [1] was > 30 µM (inactive), the Kd [2] was > 30 µM (inactive) and the Kd [3] was > 30 µM (inactive). The Kd [4] was > 30 µM (inactive), the Kd [5] was > 30 µM (inactive) and the Kd [6] was > 30 µM (inactive).
For `Cc1cc(-c2cc(O)ccc2Cl)cc2nnc(Nc3ccc(OCCN4CCCC4)cc3)nc12`, the Kd [1] was > 30 µM (inactive), the Kd [2] was > 30 µM (inactive) and the Kd [3] was > 30 µM (inactive). The Kd [4] was > 30 µM (inactive), the Kd [5] was 0.003 µM (active) and the Kd [6] was > 30 µM (inactive).
For `Cc1c(F)cc(C(=O)NC2CC2)cc1-c1ccc(C(=O)NCC(C)(C)C)cn1` [LOSMAPIMOD], the Kd [1] was > 30 µM (inactive), the Kd [2] was > 30 µM (inactive) and the Kd [3] was > 30 µM (inactive). The Kd [4] was > 30 µM (inactive), the Kd [5] was > 30 µM (inactive) and the Kd [6] was > 30 µM (inactive).
`O=C(c1ccc(F)c(F)c1Nc1ccc(I)cc1F)N1CC(O)([C@@H]2CCCCN2)C1` [COBIMETINIB] was tested, and the Kd [1] was > 30 µM (inactive), the Kd [2] was > 30 µM (inactive) and the Kd [3] was > 30 µM (inactive). For the same molecule, the Kd [4] was > 30 µM (inactive), the Kd [5] was > 30 µM (inactive) and the Kd [6] was > 30 µM (inactive).
`COc1cc(N2CCC(N3CCN(C)CC3)CC2)ccc1Nc1ncnc(Nc2ccccc2S(=O)(=O)C(C)C)n1` [ASP-3026] was tested, and the Kd [1] was > 30 µM (inactive), the Kd [2] was > 30 µM (inactive) and the Kd [3] was > 30 µM (inactive). The Kd [4] was > 30 µM (inactive), the Kd [5] was > 30 µM (inactive) and the Kd [6] was 0.273 µM (active).
For `CNS(=O)(=O)Nc1nccc(Cc2c(C)c3ccc(Oc4ncccn4)cc3oc2=O)c1F` [AVUTOMETINIB], the Kd [1] was > 30 µM (inactive), the Kd [2] was > 30 µM (inactive) and the Kd [3] was > 30 µM (inactive). The Kd [4] was > 30 µM (inactive), the Kd [5] was > 30 µM (inactive) and the Kd [6] was > 30 µM (inactive).
For `C[C@@H](Nc1cc(F)cc(F)c1)c1cc(C(=O)N(C)C)cc2c(=O)cc(N3CCOCC3)oc12` [AZD-8186], the Kd [1] was > 30 µM (inactive), the Kd [2] was > 30 µM (inactive) and the Kd [3] was > 30 µM (inactive). The Kd [4] was > 30 µM (inactive), the Kd [5] was > 30 µM (inactive) and the Kd [6] was > 30 µM (inactive).
For `CN1CCC(CNc2ccc3ncc(-c4cccc(OC(F)(F)F)c4)n3n2)CC1` [SGI-1776], the Kd [1] was > 30 µM (inactive), the Kd [2] was > 30 µM (inactive) and the Kd [3] was > 30 µM (inactive). The Kd [4] was > 30 µM (inactive), the Kd [5] was > 30 µM (inactive) and the Kd [6] was > 30 µM (inactive).
For `CCCS(=O)(=O)Nc1ccc(F)c(C(=O)c2c[nH]c3ncc(-c4ccc(Cl)cc4)cc23)c1F` [VEMURAFENIB], the Kd [1] was 2.14 µM (active), the Kd [2] was > 30 µM (inactive) and the Kd [3] was > 30 µM (inactive). For the same molecule, the Kd [4] was > 30 µM (inactive), the Kd [5] was > 30 µM (inactive) and the Kd [6] was > 30 µM (inactive).
